Ends that are not written are not given here.
Assays:
[1] = system: embryonic cerebellar microexplants; experiment: neural cell proliferation in embryonic cerebellar microexplants; format: cell-based
Description: In another set of studies, we determined effects of NRP-5 RG on induction of neural cell proliferation in embryonic cerebellar microexplants as described herein.

mouse neural stem cells = experiment: haptotactic migration assay, mouse neural stem cells; format: cell-based
Protocol: NRPs were tested for migration-inducing/chemoattractive activity on mouse neural stem cells, EGF-dependent immortalized mouse neural stem cell line MEB5 and wild-type PC-12 cells in a haptotactic migration assay as described below.
Initial NRP Coating. Control wells of Transwell plates (Coming) with 12 μm pore size were coated in 1.5 ml of the BSA/PBS vehicle. Remaining plates were coated using various concentrations of NRPs ranging between 1-100 ng/ml (prepared in PBS containing 10 ug/ml BSA). The plates were then incubated at 37° C. for 1 hr to coat. Wells were then rinsed 2× with 1 ml sterile PBS.
Laminin ([…]) for MEB-5 cells, PDL (50 μg/ml)+Matrigel for mouse primary stem cells and fibronectin (25 ug/ml)+matrigel for PC-12 cells were used as extracellular matrix (ECM) coating for the cells. All ECM compounds were diluted in PBS. 1.5 ml of the ECM per well was incubated for 2 hrs at room temperature. The wells were then rinsed once with Iml serum-free media (e.g. NB/B27) followed by 1 ml PBS wash.
A 5 ug/mL PDL/PLL mixture (in PBS) was used to coat inserts. Subsequently the inserts were rinsed with MilliQ water.
Transferring to Media and Cell Seeding: Appropriate medium (MEB-5 cells: DMEM-high glucose+N2 (growth medium supplement from Invitrogen)+10 ng/biotin+2 mM L-glutamine, primary stem cells: NSA-medium from Euroclone and for PC-12 cells: NB/B27 medium) was transferred into the 12-well plates. […] Plates were fixed at 1-2 days in vitro (DIV).
Fixation: Inserts were discarded and wells fixed in successive dilutions of PFA (0.4, 1.2, 3 and 4%) for 3-5min in each dilution. […] The wells were rinsed and stored in PBS until counting.
A haptotactic migration assay was performed according to the description of Example 10 using rat NRP-9SD (SEQ ID NO:34) (4 nM) and mouse NRP-7SW (SEQ ID NO:24) (0.4 nM) as attractants in a Boyden chamber

cerebellar microexplants [2] = experiment: cerebellar microexplant survival assay, 3-NP/glutamate injury; format: cell-based, rat
Protocol: Toxicological and drug administration experiments were designed such that 1/100 parts of toxin and neuroprotective drug were administered simultaneously to the freshly prepared cerebellar microexplants derived from P-4 or P8 rats. Glutamate was prepared as a 50 mM stock solution in MilliQ water while 50 mM 3-nitropropionic acid was pH-adjusted (pH 6.8-7.2) in MilliQ water. The concentrations of the oxidative stress inducing toxin, 3-nitropropionic acid (3-NP), and the excitotoxin, glutamate, in the assay were 0.5 mM each. Lyophilized peptides were reconstituted in PBS or 100 μg/ml human transferrin as a 10 μM stock solution. Subsequently, serial dilutions were made. Cerebellar microexplants were cultivated for 48-72 hours at 34° C., 5% CO2 in air and 100% humidity before they were fixed by increasing amounts of paraformaldehyde (0.4%, 1.2%, 3% and 4%—each treatment 2-3 min).
For statistical analysis of survival, four fields (each field having an area of 0.65 mm^2) of each fixed cerebellar culture with the highest cell densities were chosen, and cells displaying neurite outgrowth were counted. Statistical significance was measured by Student's t-test.
Laminated cerebellar cortex was extracted from P3/4, P7/8 rat pups and triturated through gauze having a 125 μm pore size to obtain uniformly sized microexplants. After centrifugation for 3 minutes at 61 g and the pellet was resuspended in StartV medium (Biochrom) and the suspension seeded on poly-D-lysine coated coverslips in 6-well plates and incubated for 3 hrs to allow adherence, before 1 ml StartV per well was added. As described previously, glutamate/3-NP and NRP were also added. The explants are cultivated at 34° C. at 5% CO2 and 100% humidity for 48-72 hrs. BrdU was administered at start of cultivation for proliferation rate measurements and cells are counted per microscopic field after 48-72 hrs.
Cerebellar Microexplants were prepared as described in Example 9 with the addition of SDF-1 as described, in addition to glutamate/3-NP, and NRP.
Cerebellar microexplants were prepared as described in Example 9 with the addition of SDF-1, Wortmannin and PD98059 (both Calbiochem), as described, in addition to glutamate/3-NP, and NRP.

hypoxic-ischemic injury = hypoxic-ischemic injury (HI) in adult rats, histological tissue damage score; format: in vivo, rat; details: five days after insult; for neuroprotection: ICV 2 hrs after hypoxia
Protocol: To test the efficacy of NRPs in vivo studies were carried out in rats that had been exposed to hypoxic-ischemic injury (HI). Adult rats (50 days old, Wistar, 250-300 g, male) were used. The modified Levine model preparation and experimental procedures were used (Rice et al, 1981, Ann. Neurol. 9: 131-141; Guan et al J., 1993, Cereb. Blood Flow Metab.: 13(4): 609-16). These procedures in brief, consist of an HI injury induced by unilateral carotid artery ligation followed by inhalational asphyxia in the animals with an implanted lateral ventricular cannula. A guide cannula was stereotaxically placed on the top of the dura 1.5 mm to the right of the mid-line and 7.5 mm anterior to the interaural zero plane under halothane anaesthesia. The right carotid artery was double ligated two days after the cannulation. After a 1-hour recovery period from anaesthesia, each of the rats was placed in an incubator where the humidity (90±5%) and temperature ([…]) were controlled for another hour, and then each of the rats was exposed to hypoxia (6% oxygen) for 10 min. The animals were kept in the incubator for an additional 2 hours before treatment.
Rats were treated intracerebral ventricularly (icv) with 5 nM (n=12), 50 nM (n=12) or 500 nM of NRP-4 segment PQ (PGRAEAGGQ; SEQ ID NO:43) dissolved in saline, or vehicle (n=10) (normal saline) 2 hours after hypoxic-ischemic insult.
Histological examination was performed on rats 5 days after the hypoxic-ischemic injury. The rats were killed with an overdose of sodium pentobarbital and were perfused transcardially with normal saline followed by 10% formalin. The brains were kept in the same fixative for a minimum of 2 days before being processed using a standard paraffin imbedding procedure.
Coronal sections 8 μm in thickness were cut from the striatum, cerebral cortex and hippocampus and were stained with thionin and acid fuchsin. The severity of tissue damage was scored in the striatum, cortex and the CA1-2, CA3, CA4 and dentate gyrus of the hippocampus. […]

cerebellar microexplants [3] = experiment: cerebellar microexplants, oxidative stress by 0.1 mM hydrogen peroxide; format: cell-based; details: 48 hrs
Protocol: In this series of experiments, we studied whether NRP-4 Segment PQ (“NRP-4 PQ”) was able to protect cerebellar microexplanted cells from oxidative injury. We exposed cells to vehicle, 0.1 mM hydrogen peroxide or different concentrations of NRP-4 PQ in vehicle. […] Although the mechanism for this potentiation of neurite outgrowth is uncertain, it may relieve the stresses associated with creating or maintaining the microexplants themselves.

cerebellar microexplants [4] = details: AT2 receptor agonist, 96 hours after start of cultivation (Cote et al., 1999); cited from earlier work

Substance	concentration of maximal proliferation-inducing activity [1] [pM]	greater chemoattractive effect than control (BSA-containing) medium (mouse neural stem cells) [%]	higher neuroprotection than SEQ ID NO:46 (cerebellar microexplants [2]) [%]	times higher potency than SEQ ID NO:46 (cerebellar microexplants [2])	neuroprotection (hypoxic-ischemic injury)	neuroprotection (cerebellar microexplants [3])	neuroprotection within all analysed brain regions (hypoxic-ischemic injury; 9 ng/20 μl icv 2 hrs after hypoxia) [%]	longest migration distances (cerebellar microexplants [4])
REGRRDAPGRAGG-NH2 [NRP-5 segment RG, 13-mer fragment of NRP-5]	100	42.1	20	10^6 to 10^7 times	substantial neuroprotection in all analysed brain regions			
PGRAEAGGQ-NH2 [NRP-4 segment PQ, 9-mer of NRP-4]					substantial neuroprotection in all analysed brain regions	even greater than that of control explants receiving no peroxide	100	
CGP-42112								around 550 im

Reference: US7563862B2, “Neural regeneration peptides and methods for their use in treatment of brain damage” (Neuren Pharmaceuticals Limited, priority 2001, dated 2009)
